# Activity calls are given as the source filed them. The rule behind the calls is not given here.
# Legend:
# [1] = tested on: Aedes atropalpus; experiment: Toxicity in second-instar Aedes atropalpus in adult stage assessed as growth; type: functional, organism-based
# [2] = tested on: Aedes atropalpus; experiment: Toxicity in second-instar Aedes atropalpus in pupal stage assessed as growth; type: functional, organism-based
# [3] = Partition coefficient, log P of the compound; type: physicochemical; conditions: octanol/water
# [4] = tested on: Aedes atropalpus; experiment: Toxicity in second-instar Aedes atropalpus larvae at 100 ppm after 24 hrs; type: functional, organism-based
# [5] = tested on: Aedes atropalpus; experiment: Toxicity in second-instar Aedes atropalpus larvae at 10 ppm after 24 hrs; type: functional, organism-based
Compound,logP [3],Activity [1],Activity [2],Activity [4],Activity [5]
C=C1C(=O)O[C@@H]2[C@H]1CC[C@H](C)[C@@H]1[C@H](O)CC(=O)[C@]12C [BIPINNATIN],1.62,Active,Active,,
C=C1C(=O)O[C@@H]2[C@H]1CC[C@H](C)[C@]1(O)CCC(=O)[C@@]21C [CORONOPILIN],1.42,Active,Active,,
C[C@H]1C(=O)O[C@@H]2[C@H]1CC[C@H](C)[C@]1(O)C=CC(=O)[C@@]21C [HYMENOLIN],1.7,Active,Active,,
C=C1C(=O)O[C@@H]2[C@H]1CC[C@H](C)[C@]1(O)C=CC(=O)[C@@]21C [PARTHENIN],1.37,Active,Active,Active,Active

# Continued, in another order:
logP [3],Compound,Activity [1],Activity [2],Activity [4],Activity [5]
3.38,C=C1C(=O)O[C@@H]2C[C@@]3(C)CCC[C@H](C)C3=C[C@H]12 [HELENINE],Active,Active,Active,Active
3.42,C=C1C(=O)O[C@@H]2C[C@@]3(C)CCCC(=C)[C@@H]3C[C@H]12 [ISOALANTOLACTONE],Active,Active,Active,Active

# Source: ChEMBL document CHEMBL1151659, “Effects of Sesquiterpene Lactones on Development of Aedes atropalpus and Relation to Partition Coefficient” (J Nat Prod, 1985)
